From patent US5968903A, “Inhibition of H. pylori proliferation” (Biomeasure, Incorporated, priority 1998, dated 1999) come the findings set out here.

Assay [1] concerns H. pylori ATCC43504. Put plainly: H. pylori proliferation in Brucella broth, strain ATCC43504. The format is cell-based. The conditions noted are these: for ATCC43504 bacteria number: 10^-11 mol/L, 48 h.
The test system of assay [2] is H. pylori ATCC43504. The conditions noted are these: ATCC43504, 48 h.
In the next assay the target is human SSTR-1 (Homo sapiens, UniProt P30872). Put plainly: Somatostatin receptor binding assay, hSSTR-1.
A further assay deals with human SSTR-2 (Homo sapiens, UniProt P30874). Nature of the assay: Somatostatin receptor binding assay, hSSTR-2.
In a further assay the target is human SSTR-3 (Homo sapiens, UniProt P32745). Put plainly: Somatostatin receptor binding assay, hSSTR-3.
The target of another assay is human SSTR-5 (Homo sapiens, UniProt P35346). Put plainly: Somatostatin receptor binding assay, hSSTR-5.
The next assay addresses human SSTR-4 (Homo sapiens, UniProt P31391). Nature of the assay: Somatostatin receptor binding assay, hSSTR-4.
[3] abbreviates: [125I-Tyr11]somatostatin-14, CHO-K1 membranes, read-out: Ki hSSTR-1.
Where [4] appears, read: [125I-Tyr11]somatostatin-14, CHO-K1 membranes, read-out: Ki hSSTR-2.
Where [5] appears, read: [125I-Tyr11]somatostatin-14, CHO-K1 membranes, read-out: Ki hSSTR-3.
Where [6] appears, read: [125I-Tyr11]somatostatin-14, CHO-K1 membranes.

Each structure is given as a SMILES string. Like-named read-outs stand apart in the source and are kept apart here. Positions of bridges follow the written chain, without caps; N, C: chain ends. Non-standard residues stand in square brackets, D forms with d. Residues, ends and D or L forms follow the SMILES beside them. *: point of attachment. X1 = O=C(CN1CCN(CCO)CC1)*

What is called Ki is the dissociation constant of the complex between target and ligand, obtained from inhibition or displacement.

Sequence of human SSTR-3 (P32745 whole entry): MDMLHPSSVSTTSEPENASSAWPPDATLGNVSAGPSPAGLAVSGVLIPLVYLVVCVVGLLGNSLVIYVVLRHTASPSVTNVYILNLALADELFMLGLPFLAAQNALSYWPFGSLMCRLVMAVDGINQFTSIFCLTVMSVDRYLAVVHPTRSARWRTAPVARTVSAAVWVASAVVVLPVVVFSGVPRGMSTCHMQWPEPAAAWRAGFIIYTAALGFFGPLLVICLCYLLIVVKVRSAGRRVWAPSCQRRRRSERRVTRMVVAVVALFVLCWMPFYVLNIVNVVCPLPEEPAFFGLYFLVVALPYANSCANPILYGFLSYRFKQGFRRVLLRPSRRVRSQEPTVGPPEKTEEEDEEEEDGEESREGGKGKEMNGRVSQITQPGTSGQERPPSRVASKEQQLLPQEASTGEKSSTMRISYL
Sequence of human SSTR-2 (P30874 whole entry): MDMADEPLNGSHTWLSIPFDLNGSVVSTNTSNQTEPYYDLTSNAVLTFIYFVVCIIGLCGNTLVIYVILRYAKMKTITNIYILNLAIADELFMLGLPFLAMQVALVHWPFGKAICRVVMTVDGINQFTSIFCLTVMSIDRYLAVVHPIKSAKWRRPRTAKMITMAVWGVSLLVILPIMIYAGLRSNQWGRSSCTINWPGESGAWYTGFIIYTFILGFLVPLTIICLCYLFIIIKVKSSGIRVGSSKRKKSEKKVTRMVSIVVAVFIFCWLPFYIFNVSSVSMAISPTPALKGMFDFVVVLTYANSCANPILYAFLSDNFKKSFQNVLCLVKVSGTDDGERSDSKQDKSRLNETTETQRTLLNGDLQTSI
Sequence of human SSTR-1 (P30872 whole entry): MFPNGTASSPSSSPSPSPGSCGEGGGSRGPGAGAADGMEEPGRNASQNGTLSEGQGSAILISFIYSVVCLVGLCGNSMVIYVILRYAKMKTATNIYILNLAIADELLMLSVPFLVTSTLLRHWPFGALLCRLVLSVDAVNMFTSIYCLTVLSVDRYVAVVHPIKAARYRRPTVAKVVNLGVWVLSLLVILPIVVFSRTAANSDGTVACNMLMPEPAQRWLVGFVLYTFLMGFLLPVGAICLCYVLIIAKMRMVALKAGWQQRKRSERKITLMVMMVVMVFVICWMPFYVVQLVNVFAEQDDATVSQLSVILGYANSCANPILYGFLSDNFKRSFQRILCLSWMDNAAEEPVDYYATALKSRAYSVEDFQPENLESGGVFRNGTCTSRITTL
Sequence of human SSTR-5 (P35346 whole entry): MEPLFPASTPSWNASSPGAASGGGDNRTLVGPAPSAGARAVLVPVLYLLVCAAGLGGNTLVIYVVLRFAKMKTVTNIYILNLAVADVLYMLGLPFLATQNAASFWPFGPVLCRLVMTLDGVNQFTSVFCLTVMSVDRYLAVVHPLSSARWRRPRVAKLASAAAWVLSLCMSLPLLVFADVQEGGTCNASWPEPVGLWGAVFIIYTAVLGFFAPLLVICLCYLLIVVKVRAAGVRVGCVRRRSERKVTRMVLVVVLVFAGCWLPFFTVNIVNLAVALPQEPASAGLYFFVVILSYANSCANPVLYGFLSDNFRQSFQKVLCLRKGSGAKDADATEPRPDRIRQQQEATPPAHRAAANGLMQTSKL
Sequence of human SSTR-4 (P31391 whole entry): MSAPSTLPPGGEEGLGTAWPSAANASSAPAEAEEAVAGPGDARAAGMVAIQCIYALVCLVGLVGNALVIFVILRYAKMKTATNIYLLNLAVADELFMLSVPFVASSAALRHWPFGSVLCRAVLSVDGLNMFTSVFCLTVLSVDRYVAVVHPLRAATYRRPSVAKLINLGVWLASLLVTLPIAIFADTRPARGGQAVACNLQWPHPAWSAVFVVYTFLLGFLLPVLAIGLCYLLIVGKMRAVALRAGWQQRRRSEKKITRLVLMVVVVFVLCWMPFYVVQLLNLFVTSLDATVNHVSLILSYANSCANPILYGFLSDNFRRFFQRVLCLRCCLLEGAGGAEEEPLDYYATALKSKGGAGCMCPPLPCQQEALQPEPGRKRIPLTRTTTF

As to `C[C@H](N)C(=O)NCC(=O)N[C@H]1CSSC[C@@H](C(=O)O)NC(=O)[C@H](CO)NC(=O)[C@H]([C@@H](C)O)NC(=O)[C@H](Cc2ccccc2)NC(=O)[C@H]([C@@H](C)O)NC(=O)[C@H](CCCCN)NC(=O)[C@H](Cc2c[nH]c3ccccc23)NC(=O)[C@H](Cc2ccccc2)NC(=O)[C@H](Cc2ccccc2)NC(=O)[C@H](CC(N)=O)NC(=O)[C@H](CCCCN)NC1=O` [somatostatin], in the assay on H. pylori ATCC43504 [1], the “decrease of bacteria number / suppression of ATCC43504 proliferation” value is 49% and the “inhibition of ATCC43504 proliferation (in words)” value is given as “inhibited proliferation of ATCC43504 in a dose-dependent manner”. In the assay on H. pylori NCTC11638, the NCTC11638 bacteria number is given as 1.6±0.2 ×10^6 CFU/mL. Besides, the “inhibition of NCTC11638” value in the assay with H. pylori NCTC11638 (NCTC11638, 48 h) is 90%. In addition, the NCTC11916 bacteria number in the assay with H. pylori NCTC11916 is on record as 2.6±0.2 ×10^6 CFU/mL. Further, in the assay with H. pylori NCTC11916 (NCTC11916, 48 h), the “inhibition of NCTC11916” value was determined as 79%. Besides, in the assay with H. pylori ATCC43504 [2], the “inhibition of H. pylori proliferation by somatostatin” value amounted to 88%.

`NCCCC[C@@H]1NC(=O)[C@@H](Cc2c[nH]c3ccccc23)NC(=O)[C@H](Cc2ccccc2)NC(=O)[C@H](Cc2ccccc2)NC(=O)[C@@H](N)CSSC[C@@H](C(N)=O)NC(=O)[C@H](Cc2ccccc2)NC(=O)[C@H](CO)NC1=O` [Example 108, H-Cys-Phe-Phe-D-Trp-Lys-Ser-Phe-Cys-NH2] (H-CFF[dW]KSFC-NH2; disulfide 1-8 (inferred)): the Ki on human SSTR-1 (setting [3]) came out at 27.9 nM; on human SSTR-2 (setting [4]) it was 19.3 nM; at human SSTR-3 (setting [5]), 35.6 nM; at human SSTR-5 (setting [6]), 0.85 nM.

As for `C[C@@H](O)[C@@H]1NC(=O)[C@H](CCCCN)NC(=O)[C@@H](Cc2c[nH]c3ccccc23)NC(=O)[C@H](Cc2ccc(O)cc2)NC(=O)[C@H](Cc2ccccc2)NC(=O)[C@@H](N)CSSC[C@@H](C(N)=O)NC(=O)[C@H](Cc2ccccc2)NC1=O` [Example 109, H-Cys-Phe-Tyr-D-Trp-Lys-Thr-Phe-Cys-NH2] (H-CFY[dW]KTFC-NH2; disulfide 1-8 (inferred)), the Ki on human SSTR-1 (setting [3]) turned out to be 86.9 nM; on human SSTR-2 (setting [4]) it was 6.19 nM; at human SSTR-3 (setting [5]), 9.7 nM; at human SSTR-5 (setting [6]) it was 0.34 nM. In addition, the “affinity for type 2 (in words)” value on human SSTR-2 is reported as “high affinity”. In addition, the “affinity for type 3 (in words)” value on human SSTR-3 is listed as “high affinity”. The “affinity for type 4 (in words)” value at human SSTR-4 was “high affinity”. Further, in the assay on H. pylori ATCC43504 [1], the ATCC43504 bacteria number is 1.4 ± 0.5 ×10^5 CFU/mL.

For `CC(C)[C@@H]1NC(=O)[C@H](CCCCN)NC(=O)[C@@H](Cc2c[nH]c3ccccc23)NC(=O)[C@H](Cc2ccc(O)cc2)NC(=O)[C@H](C)N(C)C(=O)[C@H](Cc2ccccc2)NC1=O` [Example 76, cyclo(N-Me-Ala-Tyr-D-Trp-Lys-Val-Phe)], the “affinity for type 2 (in words)” value at human SSTR-2 is reported as “high affinity”. Further, in the assay on H. pylori ATCC43504 [1], the ATCC43504 bacteria number is 2.7 ± 1.3 ×10^5 CFU/mL.

Take `C[C@@H](O)[C@H](NC(=O)[C@@H]1CSSC[C@H](NC(=O)[C@H](N)Cc2ccc3ccccc3c2)C(=O)N[C@@H](Cc2ccc(O)cc2)C(=O)N[C@H](Cc2c[nH]c3ccccc23)C(=O)N[C@@H](CCCCN)C(=O)N[C@@H]([C@@H](C)O)C(=O)N1)C(N)=O` [Example 1, H-D-β-Nal-Cys-Tyr-D-Trp-Lys-Thr-Cys-Thr-NH2]: the Ki was determined as 2410 nM on human SSTR-1, 0.75 nM at human SSTR-2 and 97.9 nM at human SSTR-3.

For the molecule `C[C@@H](O)[C@H](NC(=O)[C@H](Cc1ccccc1)NC(=O)[C@@H](NC(=O)[C@H](CCCCN)NC(=O)[C@@H](Cc1c[nH]c2ccccc12)NC(=O)[C@H](Cc1ccccc1)NC(=O)[C@H](Cc1ccccc1)NC(=O)[C@@H](Cc1ccccc1)NC(=O)CN1CCN(CCO)CC1)[C@@H](C)O)C(N)=O` [Example 118] (X1-[dF]FF[dW]KTFT-NH2), the Ki at human SSTR-1 (read-out: Ki hSSTR-1) worked out at 47.7 nM; at human SSTR-2 (read-out: Ki hSSTR-2), 3.23 nM; on human SSTR-3 (read-out: Ki hSSTR-3) it was 10.9 nM; on human SSTR-4 it was 753 nM; at human SSTR-5, 1.01 nM.

As for `C[C@@H](O)[C@@H]1NC(=O)[C@H](CCCCN)NC(=O)[C@@H](Cc2c[nH]c3ccccc23)NC(=O)[C@H](Cc2ccccc2)NC(=O)[C@H](Cc2ccccc2)NC(=O)[C@@H](N)CSSC[C@@H](C(N)=O)NC(=O)[C@H](Cc2ccccc2)NC1=O` [Example 107, H-Cys-Phe-Phe-D-Trp-Lys-Thr-Phe-Cys-NH2] (H-CFF[dW]KTFC-NH2; disulfide 1-8 (inferred)), at human SSTR-1, the “affinity for type 1 (in words)” value was “some affinity”. Also, the “affinity for type 3 (in words)” value on human SSTR-3 is “some affinity”. For the same molecule, on human SSTR-5, the “affinity for type 5 (in words)” value is recorded as “high affinity”. For the same molecule, the ATCC43504 bacteria number in the assay on H. pylori ATCC43504 [1] was 6.5 ± 0.7 ×10^5 CFU/mL.

For `C[C@@H](O)[C@H](NC(=O)[C@H](Cc1ccccc1)NC(=O)[C@@H](NC(=O)[C@H](CCCCN)NC(=O)[C@@H](Cc1c[nH]c2ccccc12)NC(=O)[C@H](Cc1ccccc1)NC(=O)[C@H](Cc1ccccc1)NC(=O)[C@H](N)Cc1ccccc1)[C@@H](C)O)C(N)=O` [Example 114, H-D-Phe-Phe-Phe-D-Trp-Lys-Thr-Phe-Thr-NH2] (H-[dF]FF[dW]KTFT-NH2), on human SSTR-3, the “affinity for type 3 (in words)” value is “high affinity”. Also, the “affinity for type 5 (in words)” value at human SSTR-5 is “high affinity”. Moreover, the ATCC43504 bacteria number with H. pylori ATCC43504 [1] was 9.8 ± 2.0 ×10^5 CFU/mL.
